Where two headings read alike, the source gives them in different places.
Assays:
[1] = test system: haploid germinated maize seedlings
Description: An exemplary cycloalkene, 1,2,3-Trimethoxy-4-(1S,6R)-6-nitro-cyclohex-3-enyl)-benzene, designated as compound 1 was used to determine double haploid efficiency, doubling rate by a coleoptile tip cutting, seedling soaking method. […] Data provided in Tables 1, 2 and 3 were generated using haploid seeds obtained through cross pollination of a maize line of interest with an inducer maize line.
The resulting maize seeds were sorted based on marker gene color.
Coleoptile tips in maize seedlings were cut and the seedlings were soaked in various chromosome doubling agents as shown in Table 1. Haploid maize seeds were germinated and the coleoptile tips were excised (1-2 mm). Seedlings that survived were transplanted and grown until tassels and silk formed. Plants that produced tassels and silk were self-pollinated. Seeds produced from the self-pollination were visually assessed for the marker to identify them as double haploid (dihaploid).

[2] = test system: germinated haploid maize seedlings; test: Foliar spray treatment of germinated haploid maize seedlings in soil at V1-V3 stage; format: in vivo
Experimental: Haploid maize seeds were planted in Sun Gro METRO-MIX® 306 planting mixture, which typically has a pH of 6.0 to 6.8 and an organic matter content of about 30 percent, in 72-well, plastic propagation flats (Dillen Products; Middlefield Ohio). When required to ensure good germination and healthy plants, a fungicide treatment and/or other chemical or physical treatment was applied. The plants were grown in a greenhouse with an approximate 15 hour photoperiod which was maintained at about 23-29° C. during the day and 22-28° C. during the night until they reached the V1-V3 growth stage. Nutrients and water were added on a regular basis and supplemental lighting was provided with overhead metal halide 1000-Watt lamps as necessary.
A weighed amount of compound 1, determined by the rate to be tested, was dissolved in 1.2 mL of dimethyl sulfoxide (DMSO) to obtain concentrated stock solutions. […] The concentrated stock solutions obtained were diluted with 10.8 mL of an aqueous mixture containing 1.25% v/v (volume/volume) Agri-dex Crop Oil Concentrate. Compound requirements are based upon a 12 mL application volume at a rate of 187 L/ha. Formulated compounds were applied to the plant material with an overhead Mandel track sprayer equipped with a 8002E nozzle calibrated to deliver 187 L/ha over an application area of 0.503 square meter at a spray height of 18 inches ([…]) above the average plant canopy height. Control plants were sprayed in the same manner with the solvent blank.
The treated plants and control plants were placed in a greenhouse, as described above, and watered by sub-irrigation to prevent wash-off of the test compounds. Approximately 14 days after treatment, the treated plants were transplanted to individual pots containing Sun Gro METRO-MIX® 360. Plants that produced tassels and silk were then self-pollinated to obtain dihaploid seed.
Table 3 illustrates the results of doubling rate after spray treatment with the chemicals of interest. […] The spray treated plant tassels and silks were synchronized well and the plants shed more pollen.

rabbit = settings: cited from earlier work
rats = test: Dermal toxicity on rats; format: in vivo, rat; settings: 200 mg/kg
[3] = after transplanting, rate 25 μM
[4] = after transplanting, rate 125 μM
[5] = seedling soak, colchicine 0.06% w/v (rate cell empty)

Compound: C#CC(C)(C)NC(=O)c1cc(Cl)cc(Cl)c1 [Pronamide, pronamide]
- No. plants dead after TP ([1]; after transplanting, rate 5 μM): 3
- No. plants dead after TP [1, 3]: 1
- No. plants dead after TP [1, 4]: 0
- # plants dead after treatment ([2]; spray, 35 g ai/ha): 0
- # plants dead after treatment ([2]; spray, 140 g ai/ha): 0

Compound: COc1cc2c(c(OC)c1OC)-c1ccc(OC)c(=O)cc1[C@@H](NC(C)=O)CC2 [Colchicine, colchicine]
- No. plants dead after TP ([1]; after transplanting, colchicine 0.06% w/v (rate cell empty)): 0
- No. plants alive [1, 5]: 38
- No. plants dead [1, 5]: 27
- Eye irritation (rabbit): about 1 %/3D

Compound: COc1ccc([C@@H]2CC=CC[C@H]2[N+](=O)[O-])c(OC)c1OC [Compound 1, 1,2,3-Trimethoxy-4-((1S,6R)-6-nitro-cyclohex-3-enyl)-benzene]
- dermal toxicity (rats): No dermal toxicity was observed
- No. plants dead after TP ([1]; maize, in vivo, 5 μM): 2
- No. plants dead after TP ([1]; maize, in vivo, 25 μM): 2
- No. plants dead after TP ([1]; maize, in vivo, 125 μM): 2
- # plants dead after treatment ([2]; maize, in vivo): 0

Compound: CC(C)OC(=O)Nc1cccc(Cl)c1 [Chlorpropham, chlorpropham]
- No. plants dead after TP ([1]; after transplanting, rate 5 μM): 0
- No. plants dead after TP [1, 3]: 0
- No. plants dead after TP [1, 4]: 0
- # plants dead after treatment ([2]; spray, 70 g ai/ha): 0
- # plants dead after treatment ([2]; spray, 280 g ai/ha): 1

— patent publication US10798893B2, “Induced chromosome doubling in plants” (Dow AgroSciences LLC, priority 2009, dated 2020)
